Drawing on PubChem BioAssay (NCI), this text covers GI50 and TGI for seven compounds.

Test systems include SF-268 CNS; HCC-2998 colon; HCT-15 colon; RXF 393 renal; UACC-62 melanoma; TK-10 renal; BT-549 breast; OVCAR-8 ovarian; MCF7 breast; SF-539 CNS.
Test in all cases: growth of human tumour cells (NCI), 48 h

Each structure is given as a SMILES string. “And” between values parts separate entries of the source, which are not always exact repeats. Equal entries are not always repeated.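 Each compound was tested at five concentrations against cells in 96-well plates for 48 hours. Abbreviation: GI50, concentration required for 50% inhibition of growth. TGI denotes the concentration required for complete inhibition of growth.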

For the compound `CCOC(=O)C1=C(c2ccccc2)N(Cc2ccccc2)C2(O)C=CC(=O)C3C(=O)N(c4ccccc4)C(=O)C132` (stereo unspecified), the GI50 is 2.56 µM in the experiment on SF-268 CNS; 1.77 µM in the experiment with HCC-2998 colon; 1.7 µM in the experiment on HCT-15 colon; 1.91 µM in the experiment with RXF 393 renal; 1.63 µM in the experiment on UACC-62 melanoma; 2.71 µM in the experiment with TK-10 renal. Besides, the GI50 in the experiment with BT-549 breast is 1.76 µM; in the experiment with OVCAR-8 ovarian, 3.09 µM; in the experiment on MCF7 breast, 1.29 µM; in the experiment with SF-539 CNS, 1.91 µM. The TGI was determined as 8.08 µM with SF-268 CNS; 3.26 µM in the experiment on HCC-2998 colon; 3.67 µM in the experiment with HCT-15 colon; 3.75 µM with RXF 393 renal; 3.16 µM in the experiment on UACC-62 melanoma; 7.24 µM with TK-10 renal. Also, the TGI came to 3.58 µM with BT-549 breast, 17.5 µM in the experiment on OVCAR-8 ovarian, 3.08 µM in the experiment on MCF7 breast and 3.76 µM with SF-539 CNS.
`CCCCCCN(CCCCCC)CC(O)c1cccc2ccc(Cl)cc12` (stereo unspecified): the GI50 in the experiment with SF-268 CNS was 12.4 µM; in the experiment on HCC-2998 colon, 2.96 µM; in the experiment on HCT-15 colon it was 5.01 µM; with RXF 393 renal it was 2.16 µM; in the experiment on UACC-62 melanoma, 8.11 µM; with TK-10 renal it was 12.4 µM. Besides, the GI50 in the experiment on BT-549 breast is 14.1 µM; in the experiment with OVCAR-8 ovarian, 15.7 µM; with MCF7 breast, 7.52 µM; with SF-539 CNS it was 1.58 µM. Besides, the TGI was 27.1 µM in the experiment on SF-268 CNS; 8.04 µM in the experiment on HCC-2998 colon; 18.3 µM with HCT-15 colon; 7.71 µM in the experiment on RXF 393 renal; 21.2 µM in the experiment on UACC-62 melanoma; 25.4 µM in the experiment with TK-10 renal. Also, the TGI stood at 28 µM in the experiment on BT-549 breast, 32.7 µM in the experiment with OVCAR-8 ovarian, 20.3 µM in the experiment with MCF7 breast and 4.95 µM in the experiment on SF-539 CNS.
In the case of `COc1cc(OC)c(/C=C/S(=O)(=O)Cc2ccc(OC)c(NCC(=O)O)c2)c(OC)c1`, the GI50 is 0.292 µM and 0.153 µM with SF-268 CNS; 0.247 µM and 0.237 µM with HCC-2998 colon; 0.127 µM and 0.241 µM in the experiment with HCT-15 colon; 0.0726 µM and 0.0467 µM in the experiment on RXF 393 renal; 0.193 µM and 0.4 µM in the experiment with BT-549 breast; 0.273 µM and 0.104 µM in the experiment on OVCAR-8 ovarian. The GI50 in the experiment with MCF7 breast is 0.109 µM and 0.0586 µM; with SF-539 CNS it was 0.193 µM and 0.0553 µM. Further, the TGI in the experiment on SF-268 CNS, with HCC-2998 colon, in the experiment with HCT-15 colon, with RXF 393 renal, in the experiment on UACC-62 melanoma and with TK-10 renal was > 100 µM each time. Besides, the TGI was > 24.5 µM with BT-549 breast, > 100 µM in the experiment on OVCAR-8 ovarian and > 100 µM with MCF7 breast.
`C#Cc1ccc(-n2c(/C=C/c3cc(OC)c(OC)c(OC)c3)nc3ncccc3c2=O)cc1`: the GI50 was 5.33 µM with SF-268 CNS; 27.5 µM in the experiment on HCC-2998 colon; 5.58 µM in the experiment with HCT-15 colon; 7.04 µM in the experiment with RXF 393 renal; 6.9 µM in the experiment with UACC-62 melanoma; 17.3 µM with TK-10 renal. In addition, the GI50 with BT-549 breast was 2.99 µM; with OVCAR-8 ovarian, 9.67 µM; in the experiment on MCF7 breast, 3.17 µM; with SF-539 CNS it was 4.57 µM. The TGI with SF-268 CNS was 98 µM; in the experiment with HCC-2998 colon, > 100 µM; in the experiment with HCT-15 colon it was > 100 µM; in the experiment on RXF 393 renal, > 100 µM; with UACC-62 melanoma, > 100 µM; in the experiment on TK-10 renal, 62.9 µM. The TGI was 9.95 µM in the experiment with BT-549 breast, > 100 µM in the experiment on OVCAR-8 ovarian, > 100 µM in the experiment with MCF7 breast and 37.7 µM in the experiment with SF-539 CNS.
With `CC(=O)N[C@@H]1CCC[C@H](C(=O)Nc2cc(-c3cnn4c3CC(C)(C)C4)c(Cl)cn2)C1`, the GI50 in the experiment with SF-268 CNS is < 0.01 µM; in the experiment with HCC-2998 colon, < 0.0149 µM; in the experiment on HCT-15 colon it was 0.0225 µM; with RXF 393 renal, < 0.01 µM; in the experiment on UACC-62 melanoma it was < 0.01 µM; with TK-10 renal, < 0.01 µM. Further, the GI50 was < 0.01 µM in the experiment with BT-549 breast, < 0.012 µM in the experiment on OVCAR-8 ovarian, < 0.01 µM in the experiment on MCF7 breast and < 0.01 µM in the experiment on SF-539 CNS. Moreover, the TGI in the experiment with SF-268 CNS is 0.431 µM; in the experiment on HCC-2998 colon it was 0.237 µM; in the experiment with HCT-15 colon, > 100 µM; in the experiment on RXF 393 renal it was < 0.01 µM; in the experiment on UACC-62 melanoma it was 0.0549 µM; in the experiment on TK-10 renal, > 100 µM. The TGI was 0.0499 µM in the experiment on BT-549 breast, > 100 µM in the experiment with OVCAR-8 ovarian, 40.6 µM in the experiment with MCF7 breast and 0.0187 µM in the experiment with SF-539 CNS.
On to `COc1cc(OC)cc(N2CCN(C(=O)Nc3nc4cc(F)ccc4nc3OC)CC2)c1`, for which the GI50 with SF-268 CNS was 0.0912 µM and 0.094 µM and 0.0661 µM; in the experiment with HCC-2998 colon, 0.0445 µM and 0.0377 µM and 0.0381 µM; in the experiment with HCT-15 colon, 0.0318 µM and 0.0346 µM and 0.034 µM; with RXF 393 renal, < 0.01 µM and 0.016 µM; in the experiment with UACC-62 melanoma, < 0.01 µM and 0.0142 µM; with TK-10 renal it was 16.6 µM and 10.3 µM. Besides, the GI50 in the experiment with BT-549 breast was 0.0345 µM and 0.0458 µM and 0.0335 µM; in the experiment on OVCAR-8 ovarian it was 0.0437 µM and 0.0499 µM and 0.056 µM; in the experiment with MCF7 breast, 0.0239 µM and 0.0265 µM and 0.0142 µM; in the experiment with SF-539 CNS, 0.0195 µM and 0.0228 µM and 0.0136 µM. For the same compound, the TGI in the experiment on SF-268 CNS is 75.7 µM and 34.1 µM; with HCC-2998 colon, 31.4 µM and 27.1 µM; with HCT-15 colon it was > 100 µM; in the experiment with RXF 393 renal it was 40.7 µM and 66.1 µM; in the experiment on UACC-62 melanoma it was 27.2 µM and 21.9 µM; with TK-10 renal, 71.6 µM and 63.8 µM. The TGI in the experiment with BT-549 breast is 2.49 µM and 2.33 µM and 0.498 µM; with OVCAR-8 ovarian, > 100 µM; with MCF7 breast, 24.7 µM and 22.8 µM.
On to `COc1cc(C(=O)N/N=C/c2cccc([N+](=O)[O-])c2)cc(OC)c1OC`, for which the GI50 in the experiment with SF-268 CNS is 5.57 µM; in the experiment with HCC-2998 colon, 7.95 µM; in the experiment with HCT-15 colon it was 6.78 µM; with RXF 393 renal, 6.9 µM; in the experiment with UACC-62 melanoma it was 6.31 µM; in the experiment with TK-10 renal, 25.2 µM. Further, the GI50 with BT-549 breast is 4.95 µM; in the experiment on OVCAR-8 ovarian, 23.6 µM; in the experiment on MCF7 breast, 4.49 µM; in the experiment on SF-539 CNS it was 3.28 µM. The TGI with SF-268 CNS was > 100 µM; in the experiment on HCC-2998 colon, 59.5 µM; in the experiment on HCT-15 colon, > 100 µM; in the experiment with RXF 393 renal, 34.3 µM; in the experiment with UACC-62 melanoma it was > 100 µM; in the experiment on TK-10 renal it was > 100 µM. The TGI is 86.6 µM in the experiment with BT-549 breast, > 100 µM with OVCAR-8 ovarian, > 100 µM in the experiment with MCF7 breast and 16.9 µM in the experiment on SF-539 CNS.
